Laboratory results: patent publication US6706748B2 (priority 2000, dated 2004)

Row | melting point [°C] | Structure (SMILES)
1 | 138 to 139 | COc1ccc(C(=O)CC(=O)c2snc(Cl)c2Cl)cc1
2 | 154 to 158 | COc1ccc(S(=O)(=O)N(C(=O)c2snc(Cl)c2Cl)c2ccc(Cl)cc2)cc1 [Ia-68, N-(3,4-dichloro-5-isothiazolecarbonyl)-N-(4-chlorophenyl)-4-methoxybenzenesulfonamide]
3 | 174 | CCOCOc1ccc(C(=O)CC(=O)c2snc(Cl)c2Cl)cc1 [Ic-145, 1-(3,4-dichloro-5-isothiazolyl)-3-(4-ethoxymethoxyphenyl)-1,3-propanedione]
4 | 224 to 227 | O=C(CC(=O)c1snc(Cl)c1Cl)c1ccc(O)cc1 [Ic-148, 1-(3,4-dichloro-5-isothiazolyl)-3-(4-hydroxyphenyl)-1,3-propanedione]
5 | 119 to 122 | COC(=O)C(C#N)C(=O)c1snc(Cl)c1Cl (centres unmarked) [Ie-1, methyl 2-cyano-3-(3,4-dichloro-5-isothiazolyl)-3-oxopropanoate]
